As a reminder, the IC50 is the concentration needed to halve the response being measured.

The results in this text go back to US7189754B2, “Pyrrolidine ester derivatives with oxytocin modulating activity” (Applied Research Systems ARS Holding NV, priority 2001, dated 2007).

The target of the experiment is T1, hOT receptor (Homo sapiens, UniProt P30559).
T1 construct: expressed in transfected cells; host or cells: HEK293EBNA
T1 sequence (P30559 1-389): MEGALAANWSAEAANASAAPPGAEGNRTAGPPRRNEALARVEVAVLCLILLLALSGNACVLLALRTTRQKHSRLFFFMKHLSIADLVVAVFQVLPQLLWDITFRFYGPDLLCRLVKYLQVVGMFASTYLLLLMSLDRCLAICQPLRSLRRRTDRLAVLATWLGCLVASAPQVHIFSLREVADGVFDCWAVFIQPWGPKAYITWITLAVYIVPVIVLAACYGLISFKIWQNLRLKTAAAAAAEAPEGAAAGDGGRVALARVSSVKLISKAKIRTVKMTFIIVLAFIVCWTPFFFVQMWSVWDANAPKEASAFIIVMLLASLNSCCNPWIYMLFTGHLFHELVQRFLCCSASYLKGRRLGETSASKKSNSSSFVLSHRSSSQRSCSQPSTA
Briefly: Functional assay No. 1: inhibition of oxytocin mediated Ca2+-mobilization by FLIPR in HEK293EBNA cells. Type of experiment: cell-based. The following applies: HEK293EBNA cells expressing hOT receptor, OT 40 nM, fluo-4, FLIPR; read-out: Inhibition of Ca2+ mobiliation, hOT-R IC50. The text has this: b) Functional Assay No. 1: Inhibition of Oxytocin Mediated Ca^2+-mobilization by FLIPR® (Fluorimetric Imaging Plate Reader)
The action of OT on the OT-receptor triggers a complex cascade of events in the cell which leads to an increase in the intra-cytoplasmic Ca^2+ concentration. This increase in Ca^2+ concentration results from both calcium release from the sarcoplasmic reticulum (calcium stores) into the cytoplasm and from calcium influx from the extracellular space through Ca^2+ channels. […]
FLIPR® is a fluorimetric imaging device using a laser (Argon-ion laser) for simultaneous illumination and reading (cooled CCD camera) of each well of a 96-well-plate, thus enabling rapid measurements on a large number of samples. […]
The relative fluorescence of Fluo-4 (λex=488 nm, […]) is then measured by the FLIPR in presence or absence of compounds of formula (I). The fluorescence of the marker being sensitive to the amount of Ca^2+, the Ca^2+ movements can be detected. Then, the ability of compounds of formula (I) to antagonize the oxytocin-induced intracellular Ca^2+-mobilization mediated by the oxytocin receptor may be determined.
The activities of the pyrrolidine derivatives according to formula (I) were assessed using the above described in vitro biological assay. […]

Turning to `CO/N=C1\C[C@@H](C(=O)OC)N(C(=O)c2ccc(-c3ccccc3C)cc2)C1` [Methyl (2S,4E)-4-(methoxyimino)-1-[(2′-methyl[1,1′-biphenyl]-4-yl)carbonyl]-2-pyrrolidinecarboxylate], the IC50 was 15 nM.
With `CO/N=C1/C[C@@H](C(=O)OC)N(C(=O)c2ccc(-c3ccccc3C)cc2)C1` [Methyl (2S,4Z)-4-(methoxyimino)-1-[(2′-methyl[1,1′-biphenyl]-4-yl)carbonyl]-2-pyrrolidinecarboxylate], the IC50 was determined as 15 nM.
